# Test results as given in patent US10813903B2, “Compositions comprising 15-HEPE and methods of using the same” (Afimmune Limited, priority 2013, dated 2020).
# Tested on: STAM model of Non-alcoholic Steatohepatitis
# Assay: in vivo efficacy study of 15-OHEPA and EPA in STAM model of non-alcoholic steatohepatitis
# Parameters: species or system C57BL/6 mice
# Conditions: for liver weight as compared to the vehicle control: FIG. 1.2; for NAFLD Activity score (NAS) as compared to the vehicle control: HE staining, FIGS. 2.1 and 2.2
# Description: The purpose of this study was to examine the effects of 15-OHEPA and EPA in the STAM model of Non-alcoholic Steatohepatitis. Pathogen-free15-day-pregnant C57BL/6 mice were obtained from Charles River Laboratories in Japan Inc. (Kanagawa, Japan). NASH was established in male mice by a single subcutaneous injection of streptozotocin (STZ) (Sigma, USA) after birth and feeding with a high fat diet (HFD; CLEA) Japan, Japan) ad libitum after 4 weeks of age (day 28±2). Mice were randomized into 5 groups of 8 mice at 5 weeks of age (day 35±2) the day before the start of treatment. During the treatment period, individual body weight was measured daily as well as clinical signs of behavior and survival. Group 1 (Vehicle): Eight NASH mice were orally administered vehicle [olive oil] in a volume of 10 mL/kg once daily from 5 to 9 weeks of age. Group 2 (15-OHEPA 50 mg/kg): Eight NASH mice were orally administered vehicle supplemented with 15-OHEPA at a dose of 50 mg/kg once daily from 5 to 9 weeks of age. Group 3 (15-OHEPA 500 mg/kg): Eight NASH mice were orally administered vehicle supplemented with 15-OHEPA at a dose of 500 mg/kg once daily from 5 to 9 weeks of age. Group 4 (EPA 500 mg/kg): Eight NASH mice were orally administered vehicle supplemented with EPA at a dose 500 mg/kg once daily from 5 to 9 weeks of age. Group 5 (positive control): Eight NASH mice were orally administered pure water supplemented with Telmisartan at a dose of 10 mg/kg once daily from 5 to 9 weeks of age. At 9 weeks of age, all mice were sacrificed and the following data was recorded; • Individual liver weight • Liver to body weight ratio Histopathological analyses of liver sections were performed using HE staining (to estimate NAFLD Activity score). For HE staining, sections were cut from paraffin blocks of liver tissue prefixed in Bouin's solution and stained with Lillie-Mayer's Hematoxylin (Muto Pure Chemicals, Japan) and eosin solution (Wako Pure Chemical Industries). NAFLD Activity score (NAS) was calculated according to the criteria of Kleiner (Kleiner D E. et al., Hepatology, 2005; 41:1313). Statistical tests were performed using Bonferroni Multiple Comparison Test. P values <0.05 were considered statistically significant.
# [1] = 15-OHEPA 500 mg/kg oral once daily from 5 to 9 weeks of age
# [2] = positive control, Telmisartan 10 mg/kg oral once daily from 5 to 9 weeks of age
Compound,liver weight as compared to the vehicle control [1],NAFLD Activity score (NAS) as compared to the vehicle control [1],potency in the treatment of FLD relative to EPA (summary statement),liver weight as compared to the vehicle control [2],NAFLD Activity score (NAS) as compared to the vehicle control [2]
"CCC=CCC(O)C=CC=CCC=CCC=CCCCC(=O)O (centres unmarked) [15-OHEPA, 15-Hydroxy-eicosa-5,8,11,13,17-pentaenoic acid]",significant reduction,significantly decreased,more potent than EPA,–,–
"CCCc1nc2c(C)cc(-c3nc4ccccc4n3C)cc2n1Cc1ccc(-c2ccccc2C(=O)O)cc1 [telmisartan, Telmisartan, reference compound]",–,–,–,significant reduction,significantly decreased
